Reference: patent US20240368667A1, “RAPID, LABEL-FREE ANTIBIOTIC SUSCEPTIBILITY OF BACTERIA DIRECTLY FROM POSITIVE BLOOD OR BODILY FLUID/CULTURE” (priority 2021, published 2024)
Values after ≈ are worked out from the molar mass of the structure shown. Read-outs that look alike come from different tables or passages of the source.

What was measured:
P. aeruginosa = experiment: Broth microdilution (BMD) MIC; assay type: cell-based, Pseudomonas aeruginosa; parameters: key to susceptibility classification, BMD: (S) sensitive; (I) intermediate; (R) resistant; details: for MIC: Pseudomonas aeruginosa
Method: (§1) Microbroth dilution for minimum inhibitory concentrations (MIC) with and without sucrose recovery. To isolate bacteria without sucrose, culture media from positive BacT/alert FA PLUS aerobic culture bottles (bioMérieux, Durham, NC) was serially diluted and plated onto LB agar (Lennox; Sigma-Aldrich, St. Louis, MO). Bacterial suspensions were prepared by resuspending colonies in CAMHB with incubation on a MaxQ 4000 incubator shaker (Thermo Fisher Scientific, Waltham, MA) at 37° C. and ˜225 rpm for 3 hours. Bacteria recovered via Method 2 were diluted 10-fold in CAMHB. Following incubation or sucrose recovery and dilution, bacterial suspensions were adjusted to ˜0.004 OD600 with CAMHB and a 50-μL aliquot distributed to each well of a 96-well plate containing CAMHB with and without clinically relevant antibiotics (2-fold dilution series). Gram-negative plates included: ceftazidime (3rd generation cephalosporin, RPI corp., Mount Prospect, IL), cefepime (4th generation cephalosporin, Chem-Impex Int'l, Wood Dale, IL), meropenem (carbapenem, Tokyo Chemical Industry, Tokyo, Japan), levofloxacin (quinolone, Alfa Aesar, Haverhill, MA), and tobramycin (aminoglycoside, MP Biomedicals LLC, Santa Ana, CA), while S. aureus plates contained: oxacillin (beta-lactam, Sigma-Aldrich, St. Louis, MO), vancomycin (glycopeptide, Santa Cruz Biotechnology, Dallas, TX), erythromycin (macrolide, Sigma-Aldrich, St. Louis, MO), clindamycin ([…]), and ciprofloxacin (fluoroquinolone, Sigma-Aldrich, St. Louis, MO). Antibiotic plates were incubated at 37° C. for 16-20 hours (gram-negative) or 35° C. for 24 hours (S. aureus), at which time, plates were removed from the incubator and visually inspected for bacterial growth. The MIC was set at the lowest antibiotic concentration at which no growth was detected.

E. coli 79 = experiment: Microbroth dilution MIC with and without sucrose recovery; assay type: cell-based, Escherichia coli; details: MIC given as multiple of S/I/R
Method: as §1
Influence of Sucrose on Bacterial MIC. To rule out the potential effect of sucrose exposure in bacterial antibiotic susceptibility, microbroth dilution studies were performed on bacteria recovered using standard practices (i.e. plating following positive blood culture) and through selective lysis coupled with centrifugation through the sucrose cushion (Method 2).

[1] = P. aeruginosa Blood Culture B, broth microdilution
[2] = P. aeruginosa Blood Culture C, broth microdilution
[3] = P. aeruginosa PA7, broth microdilution
[4] = P. aeruginosa PA46, broth microdilution
[5] = P. aeruginosa PA49, broth microdilution
[6] = P. aeruginosa PA81, broth microdilution
[7] = P. aeruginosa PAO1, broth microdilution
[8] = P. aeruginosa Blood Culture B, broth microdilution, read-out: Minimum inhibitory concentration, BMD
[9] = P. aeruginosa Blood Culture C, broth microdilution, read-out: Minimum inhibitory concentration, BMD
[10] = P. aeruginosa PA7, broth microdilution, read-out: Minimum inhibitory concentration, BMD
[11] = P. aeruginosa PA46, broth microdilution, read-out: Minimum inhibitory concentration, BMD
[12] = P. aeruginosa PA49, broth microdilution, read-out: Minimum inhibitory concentration, BMD
[13] = P. aeruginosa PA81, broth microdilution, read-out: Minimum inhibitory concentration, BMD
[14] = PAO1, P. aeruginosa PAO1, broth microdilution, read-out: Minimum inhibitory concentration, BMD

CC(C)(O/N=C(\C(=O)N[C@@H]1C(=O)N2C(C(=O)[O-])=C(C[n+]3ccccc3)CS[C@H]12)c1csc(N)n1)C(=O)O [Ceftazidime, ceftazidime]
susceptibility classification, BMD (P. aeruginosa; [1]): (S) | susceptibility classification, BMD (P. aeruginosa; [2]): (S) | susceptibility classification, BMD (P. aeruginosa; [3]): (R) | susceptibility classification, BMD (P. aeruginosa; [4]): (S) | susceptibility classification, BMD (P. aeruginosa; [5]): (S) | susceptibility classification, BMD (P. aeruginosa; [6]): (S) | susceptibility classification, BMD (P. aeruginosa; [7]): (S) | MIC (P. aeruginosa; [8]): 4 µg/mL (≈ 7.32 µM) | MIC (P. aeruginosa; [9]): 1 µg/mL (≈ 1.83 µM) | MIC (P. aeruginosa; [10]): 128 µg/mL (≈ 234 µM) | MIC (P. aeruginosa; [11]): 1 µg/mL (≈ 1.83 µM) | MIC (P. aeruginosa; [12]): 2 µg/mL (≈ 3.66 µM) | MIC (P. aeruginosa; [13]): 4 µg/mL (≈ 7.32 µM) | MIC (P. aeruginosa; [14]): 1 µg/mL (≈ 1.83 µM)

C[C@@H](O)[C@H]1C(=O)N2C(C(=O)O)=C(S[C@@H]3CN[C@H](C(=O)N(C)C)C3)[C@H](C)[C@H]12 [Meropenem, meropenem]
susceptibility classification, BMD (P. aeruginosa; [1]): (R) | susceptibility classification, BMD (P. aeruginosa; [2]): (S) | susceptibility classification, BMD (P. aeruginosa; [3]): (S) | susceptibility classification, BMD (P. aeruginosa; [4]): (S) | susceptibility classification, BMD (P. aeruginosa; [5]): (S) | susceptibility classification, BMD (P. aeruginosa; [6]): (R) | susceptibility classification, BMD (P. aeruginosa; [7]): (S) | MIC (P. aeruginosa; [8]): 8 µg/mL (≈ 20.9 µM) | MIC (P. aeruginosa; [9]): 0.25 µg/mL (≈ 0.652 µM) | MIC (P. aeruginosa; [10]): 1 µg/mL (≈ 2.61 µM) | MIC (P. aeruginosa; [11]): 0.25 µg/mL (≈ 0.652 µM) | MIC (P. aeruginosa; [12]): 0.5 µg/mL (≈ 1.3 µM) | MIC (P. aeruginosa; [13]): 8 µg/mL (≈ 20.9 µM) | MIC (P. aeruginosa; P. aeruginosa, strain not named (FIG. 13), read-out: MIC as determined by broth microdilution): 1 µg/mL (≈ 2.61 µM) | MIC (P. aeruginosa; [14]): 0.5 µg/mL (≈ 1.3 µM)

NC[C@H]1O[C@H](O[C@H]2[C@H](O)[C@@H](O[C@H]3O[C@H](CO)[C@@H](O)[C@H](N)[C@H]3O)[C@H](N)C[C@@H]2N)[C@H](N)C[C@@H]1O [Tobramycin, tobramycin]
susceptibility classification, BMD (P. aeruginosa; [1]): (S) | susceptibility classification, BMD (P. aeruginosa; [2]): (S) | susceptibility classification, BMD (P. aeruginosa; [3]): (R) | susceptibility classification, BMD (P. aeruginosa; [4]): (S) | susceptibility classification, BMD (P. aeruginosa; [5]): (S) | susceptibility classification, BMD (P. aeruginosa; [6]): (S) | susceptibility classification, BMD (P. aeruginosa; [7]): (S) | MIC (P. aeruginosa; [8]): 2 µg/mL (≈ 4.28 µM) | MIC (P. aeruginosa; [9]): ≤ 0.125 µg/mL | MIC (P. aeruginosa; [10]): > 64 µg/mL | MIC (P. aeruginosa; [11]): 0.5 µg/mL (≈ 1.07 µM) | MIC (P. aeruginosa; [12]): 0.5 µg/mL (≈ 1.07 µM) | MIC (P. aeruginosa; [13]): 0.5 µg/mL (≈ 1.07 µM) | MIC (P. aeruginosa; [14]): 0.5 µg/mL (≈ 1.07 µM) | minimum inhibitory concentration (MIC), Standard (E. coli 79; E. coli 79 recovered by standard plating): ¼S | minimum inhibitory concentration (MIC), Sucrose (E. coli 79; E. coli 79 recovered through sucrose (Method 2)): ¼S
